Data on five molecules can be found in publication PMC3557747 (Bioorganic & medicinal chemistry letters, 2012).

Read-outs that look alike come from different tables or passages of the source. Some results are limits rather than exact numbers.

Test [1] has as its system human IMPDH2. The note with it: read-out: IC50 human IMPDH2; cited from earlier work.
For test [2], the target named is T1, CpIMPDH (Cryptosporidium parvum, UniProt Q8T6T2).
T1 sequence (Q8T6T2 1-400): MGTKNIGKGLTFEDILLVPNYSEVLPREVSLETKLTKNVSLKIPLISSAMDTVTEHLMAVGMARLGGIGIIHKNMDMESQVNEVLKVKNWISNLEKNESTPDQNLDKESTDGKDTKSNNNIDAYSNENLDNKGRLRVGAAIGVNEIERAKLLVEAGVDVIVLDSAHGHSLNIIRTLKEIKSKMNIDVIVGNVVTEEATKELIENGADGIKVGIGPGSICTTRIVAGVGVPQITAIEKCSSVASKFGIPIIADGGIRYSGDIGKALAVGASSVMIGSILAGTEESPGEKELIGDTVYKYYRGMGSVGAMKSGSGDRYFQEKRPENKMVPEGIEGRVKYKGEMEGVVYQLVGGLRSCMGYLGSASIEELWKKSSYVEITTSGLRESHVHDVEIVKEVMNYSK
The note with it: with respect to NAD+, cited from earlier work.

For test [3] the following is noted: 50 μM; cited from earlier work.
Test [4] relates to human IMPDH1. The following applies: read-out: IC50 human IMPDH1; cited from earlier work.
Test [5] deals with T. gondii/CpIMPDH. Description: Antiparasitic activity in Toxoplasma gondii model of C. parvum infection. The note with it: cultured in hTERT-immortalized human foreskin fibroblasts.
In test [6] the test system is C. parvum. Put plainly: IL12 knockout mouse model of C. parvum infection. It counts as in vivo. The note with it: 250 mg/kg oral once per day for seven days.
In test [7] the target is T1, CpIMPDH. Description: Mechanism of CpIMPDH inhibition with respect to NAD+. The format is biochemical.

What is called IC50 is the concentration that gives 50% inhibition. In the case of `COc1ccc(NC(=O)Cc2nn(C)c(=O)c3ccccc23)cc1` [Compound 1], the IC50 in test [1] and in test [4] was more than 50 µM in each case. The Ki in test [2] (read-out: Kis) was 1.8 µM. Further, the mode of inhibition result in test [2] is “mixed inhibitor”. Moreover, in test [3], the antiparasitic activity result is recorded as “did not display antiparasitic activity”.

In the case of `Cn1nc(CC(=O)Nc2ccc3oc4c(c3c2)CCCC4)c2ccccc2c1=O` [Compound 53], the “EC50 Toxo/CpIMPDH” value in test [5] is listed as “sub-micromolar activity”.

On to `Cn1nc(CC(=O)Nc2ccc(Br)c(C(F)(F)F)c2)c2ccccc2c1=O` [Compound 26], for which the “EC50 Toxo/CpIMPDH” value in test [5] is on record as “sub-micromolar activity”.

As for `Cn1nc(CC(=O)Nc2ccc3oc4ccccc4c3c2)c2ccccc2c1=O` [Compound 54], the “EC50 Toxo/CpIMPDH” value in test [5] is listed as “sub-micromolar activity”.

For the molecule `Cn1nc(CC(=O)Nc2ccc(Cl)c(C(F)(F)F)c2)c2ccccc2c1=O` [Compound 27], in test [5], the “EC50 Toxo/CpIMPDH” value is reported as “sub-micromolar activity”. Also, the “antiparasitic activity in vivo” value in test [6] was “no antiparasitic activity was observed”. Moreover, the mode of inhibition result in test [7] was “pure noncompetitive inhibitor”.
